Values after ≈ are worked out from the molar mass of the structure shown. Values belong to the molecule of their own block, whether it stands above or below them.
Tests used:
Assay in all cases: ≥ marks a high value that may be exact or a test limit, other limits are often not marked, values filed in µg/mL are converted to µM
[1] = tested on: Pseudomonas aeruginosa ATCC 27853
[2] = tested on: Escherichia coli ATCC 25922
[3] = tested on: Xanthomonas axonopodis pv. glycines ISBF 327
[4] = tested on: Pseudomonas aeruginosa 0108
[5] = tested on: Staphylococcus epidermidis
[6] = tested on: Pseudomonas aeruginosa CGMCC 1.860
[7] = tested on: Staphylococcus epidermidis CICC 23664
[8] = tested on: Cronobacter sakazakii DPC 6440
[9] = tested on: Listeria monocytogenes LO28
[10] = tested on: Pseudomonas syringae pv. syringae EPS 94
[11] = tested on: Erwinia amylovora PMV 6076
[12] = tested on: Xanthomonas campestris pv. Vesicatoria 2133-2
[13] = tested on: Staphylococcus epidermidis ATCC 12228
[14] = tested on: Staphylococcus aureus ATCC 25923
[15] = tested on: Salmonella enterica subsp. enterica serovar Typhi DMST 22842
[16] = tested on: Staphylococcus aureus SA113
[17] = tested on: Pseudomonas fluorescens NCIMB 9046
[18] = tested on: Klebsiella pneumoniae NCIMB 13218
[19] = tested on: Staphylococcus aureus NCTC 8325-4
[20] = tested on: Cronobacter sakazakii ATCC BAA-894
[21] = tested on: Staphylococcus aureus Newman
[22] = tested on: Escherichia coli NCIMB 11843
[23] = tested on: Staphylococcus aureus RF122
[24] = tested on: Cronobacter muytjensii ATCC 51329
[25] = tested on: Salmonella enterica subsp. enterica serovar Typhimurium LT2
[26] = tested on: Staphylococcus aureus RN4220
[27] = tested on: Cronobacter sakazakii DSM 4485

MIC [1]: 20 µM (≈ 64.8 µg/mL)
MIC [2]: 20 µM (≈ 64.8 µg/mL)
MIC [3]: 10 µM (≈ 32.4 µg/mL)
SMILES: CC[C@H](C)[C@H](NC(=O)[C@H](CCCN=C(N)N)NC(=O)[C@H](CCCCN)NC(=O)[C@H](CC(C)C)NC(=O)[C@H](CO)NC(=O)[C@@H](NC(=O)[C@@H](NC(=O)[C@H](CCCCN)NC(=O)[C@@H](NC(=O)CNC(=O)[C@@H](NC(=O)[C@H](CO)NC(=O)[C@H](CC(C)C)NC(=O)[C@H](Cc1ccccc1)NC(=O)[C@H](CCSC)NC(=O)[C@H](CCCCN)NC(=O)[C@H](CCCCN)NC(=O)[C@@H](NC(=O)[C@H](CCC(N)=O)NC(=O)[C@H](Cc1cnc[nH]1)NC(=O)[C@H](Cc1ccccc1)NC(=O)[C@H](CCCCN)NC(=O)CN)[C@@H](C)CC)C(C)C)C(C)C)C(C)C)[C@@H](C)O)C(=O)N[C@@H](CCC(N)=O)C(=O)N[C@@H](Cc1ccccc1)C(=O)NCC(=O)N[C@@H](CC(=O)O)C(=O)N[C@@H](Cc1ccccc1)C(N)=O [GKFHQIKKMFLSVGVKVTSLKRIQFGDF]

MIC [4]: 25 µM (≈ 40.6 µg/mL)
MIC [5]: 12.5 µM (≈ 20.3 µg/mL)
MIC [6]: 25 µM (≈ 40.6 µg/mL)
MIC [7]: 12.5 µM (≈ 20.3 µg/mL)
SMILES: CC[C@H](C)[C@H](N)C(=O)N[C@@H](CCCCN)C(=O)N[C@@H](CCCCN)C(=O)N[C@H](C(=O)N[C@@H](CC(C)C)C(=O)N[C@@H](CO)C(=O)N[C@@H](CCCCN)C(=O)N[C@H](C(=O)N[C@@H](CCCCN)C(=O)N[C@@H](CCCCN)C(=O)N[C@@H](CC(C)C)C(=O)N[C@@H](Cc1c[nH]c2ccccc12)C(=O)N[C@@H](CCCCN)C(N)=O)[C@@H](C)CC)[C@@H](C)CC [IKKILSKIKKLWK]

MIC [4]: 25 µM (≈ 40.6 µg/mL)
MIC [5]: 12.5 µM (≈ 20.3 µg/mL)
MIC [6]: 12.5 µM (≈ 20.3 µg/mL)
MIC [7]: 3.12 µM (≈ 5.07 µg/mL)
SMILES: CC[C@H](C)[C@H](N)C(=O)N[C@@H](CCCCN)C(=O)N[C@@H](CCCCN)C(=O)N[C@H](C(=O)N[C@@H](CC(C)C)C(=O)N[C@@H](CO)C(=O)N[C@@H](CCCCN)C(=O)N[C@H](C(=O)N[C@@H](CCCCN)C(=O)N[C@@H](CCCCN)C(=O)N[C@@H](Cc1c[nH]c2ccccc12)C(=O)N[C@@H](CC(C)C)C(=O)N[C@@H](CCCCN)C(N)=O)[C@@H](C)CC)[C@@H](C)CC [IKKILSKIKKWLK]

MIC [8]: ≥ 39.1 µM
MIC [9]: ≥ 39.1 µM
SMILES: CC[C@H](C)[C@H](NC(=O)[C@H](Cc1c[nH]c2ccccc12)NC(=O)[C@@H]1CCCN1C(=O)[C@H](CCCCN)NC(=O)[C@H](CCSC)NC(=O)[C@H](C)NC(=O)[C@@H](N)CCCCN)C(=O)N[C@@H](CCC(N)=O)C(=O)N1CCC[C@H]1C(=O)N[C@@H](CCCCN)C(=O)N[C@H](C(=O)N[C@@H](CCCCN)C(=O)N[C@H](C(=O)N[C@H](C(=O)N1CCC[C@H]1C(=O)N[C@@H](Cc1ccc(O)cc1)C(=O)N[C@H](C(=O)N[C@@H](CCCN=C(N)N)C(=O)N[C@@H](Cc1ccc(O)cc1)C(=O)N[C@@H](CC(C)C)C(=O)O)C(C)C)[C@@H](C)CC)C(C)C)[C@@H](C)O [KAMKPWIQPKTKVIPYVRYL]

MIC [10]: 8.66 µM (≈ 26.1 µg/mL)
MIC [11]: 3.54 µM (≈ 10.7 µg/mL)
MIC [12]: 6.12 µM (≈ 18.5 µg/mL)
SMILES: CC[C@H](C)[C@H](NC(=O)[C@H](CCCCN)NC(=O)[C@H](CCCCN)NC(=O)[C@H](Cc1ccccc1)NC(=O)[C@H](CC(C)C)NC(=O)[C@H](CCCCN)NC(=O)[C@@H](N)CCCCN)C(=O)N[C@@H](CC(C)C)C(=O)N[C@@H](CCCCN)C(=O)N[C@@H](Cc1ccc(O)cc1)C(=O)N[C@@H](CC(C)C)C(=O)N[C@@H](C)C(=O)NCC(=O)N1CCC[C@H]1C(=O)N[C@@H](C)C(=O)N[C@@H](CCCCN)C(=O)N[C@@H](Cc1ccccc1)C(=O)N[C@@H](CC(C)C)C(=O)N[C@@H](Cc1cnc[nH]1)C(=O)N[C@@H](CO)C(=O)N[C@@H](C)C(=O)N[C@@H](CCCCN)C(=O)N[C@@H](CCCCN)C(=O)N[C@@H](CC(=O)O)C(=O)N[C@@H](CCC(=O)O)C(=O)N[C@@H](CC(C)C)C(=O)O [KKLFKKILKYLAGPAKFLHSAKKDEL]

MIC [13]: 8.78 µM (≈ 23 µg/mL)
MIC [14]: > 34.7 µM
MIC [2]: 4.2 µM (≈ 11 µg/mL)
MIC [15]: 8.78 µM (≈ 23 µg/mL)
SMILES: CC(C)[C@H](NC(=O)CNC(=O)[C@@H](N)CC(N)=O)C(=O)N[C@@H](CCC(N)=O)C(=O)N1CCC[C@H]1C(=O)N[C@@H](CCCCN)C(=O)N[C@@H](Cc1ccc(O)cc1)C(=O)N[C@@H](CCCCN)C(=O)N[C@@H](Cc1c[nH]c2ccccc12)C(=O)N[C@@H](Cc1c[nH]c2ccccc12)C(=O)N[C@@H](CCCCN)C(=O)N[C@@H](Cc1c[nH]c2ccccc12)C(=O)N[C@@H](Cc1c[nH]c2ccccc12)C(=O)N[C@@H](CCCCN)C(=O)N[C@@H](CCCCN)C(=O)N[C@@H](Cc1c[nH]c2ccccc12)C(=O)N[C@@H](Cc1c[nH]c2ccccc12)C(=O)N[C@@H](Cc1c[nH]c2ccccc12)C(N)=O [NGVQPKYKWWKWWKKWWW]

MIC [13]: 33.3 µM (≈ 91 µg/mL)
MIC [14]: > 33.3 µM
MIC [2]: > 33.3 µM
MIC [15]: ≥ 33.3 µM
SMILES: CC(C)[C@H](NC(=O)CNC(=O)[C@@H](N)CC(N)=O)C(=O)N[C@@H](CCC(N)=O)C(=O)N1CCC[C@H]1C(=O)N[C@@H](CCCCN)C(=O)N[C@@H](Cc1ccc(O)cc1)C(=O)N[C@@H](CCCN=C(N)N)C(=O)N[C@@H](Cc1c[nH]c2ccccc12)C(=O)N[C@@H](Cc1c[nH]c2ccccc12)C(=O)N[C@@H](CCCN=C(N)N)C(=O)N[C@@H](Cc1c[nH]c2ccccc12)C(=O)N[C@@H](Cc1c[nH]c2ccccc12)C(=O)N[C@@H](CCCN=C(N)N)C(=O)N[C@@H](CCCN=C(N)N)C(=O)N[C@@H](Cc1c[nH]c2ccccc12)C(=O)N[C@@H](Cc1c[nH]c2ccccc12)C(=O)N[C@@H](Cc1c[nH]c2ccccc12)C(=O)O [NGVQPKYRWWRWWRRWWW]

MIC [16]: ≥ 1250 µM
MIC [17]: ≥ 2500 µM
MIC [8]: ≥ 625 µM
MIC [18]: ≥ 2500 µM
MIC [1]: 32 µM (≈ 29.7 µg/mL)
MIC [19]: ≥ 1250 µM
MIC [20]: ≥ 1250 µM
MIC [21]: ≥ 1250 µM
MIC [22]: ≥ 2500 µM
MIC [23]: ≥ 1250 µM
MIC [24]: ≥ 625 µM
MIC [25]: ≥ 1250 µM
MIC [26]: ≥ 1250 µM
MIC [27]: ≥ 1250 µM
SMILES: CC(C)C[C@H](NC(=O)[C@H](C)NC(=O)[C@H](CCC(=O)O)NC(=O)[C@H](CC(N)=O)NC(=O)[C@H](CC(C)C)NC(=O)[C@@H](N)C(C)C)C(=O)N[C@@H](CC(C)C)C(=O)N[C@@H](CCCN=C(N)N)C(=O)O [VLNEALLR]

MIC [16]: ≥ 1250 µM
MIC [17]: ≥ 2500 µM
MIC [8]: ≥ 2500 µM
MIC [18]: ≥ 2500 µM
MIC [1]: 32 µM (≈ 28.3 µg/mL)
MIC [19]: ≥ 1250 µM
MIC [20]: ≥ 2500 µM
MIC [21]: ≥ 1250 µM
MIC [22]: ≥ 2500 µM
MIC [23]: ≥ 1250 µM
MIC [24]: ≥ 2500 µM
MIC [25]: ≥ 1250 µM
MIC [26]: ≥ 1250 µM
MIC [27]: ≥ 2500 µM
SMILES: CC(C)C[C@H](NC(=O)[C@H](CC(C)C)NC(=O)[C@H](CC(N)=O)NC(=O)[C@H](CCC(=O)O)NC(=O)[C@H](CC(N)=O)NC(=O)[C@H](CC(C)C)NC(=O)[C@@H](N)C(C)C)C(=O)N[C@@H](C)C(=O)O [VLNENLLA]

MIC [8]: ≥ 312 µM
MIC [9]: ≥ 78.1 µM
SMILES: CC[C@H](C)[C@H](NC(=O)[C@H](Cc1c[nH]c2ccccc12)NC(=O)[C@@H]1CCCN1C(=O)[C@H](CCCCN)NC(=O)[C@H](CCSC)NC(=O)[C@H](C)NC(=O)[C@H](CCCCN)NC(=O)[C@H](CCC(N)=O)NC(=O)[C@H](Cc1cnc[nH]1)NC(=O)[C@H](CCC(N)=O)NC(=O)[C@H](Cc1ccc(O)cc1)NC(=O)[C@@H](N)C(C)C)C(=O)N[C@@H](CCC(N)=O)C(=O)N1CCC[C@H]1C(=O)N[C@@H](CCCCN)C(=O)N[C@H](C(=O)N[C@@H](CCCCN)C(=O)N[C@H](C(=O)N[C@H](C(=O)N1CCC[C@H]1C(=O)N[C@@H](Cc1ccc(O)cc1)C(=O)N[C@H](C(=O)N[C@@H](CCCN=C(N)N)C(=O)N[C@@H](Cc1ccc(O)cc1)C(=O)N[C@@H](CC(C)C)C(=O)O)C(C)C)[C@@H](C)CC)C(C)C)[C@@H](C)O [VYQHQKAMKPWIQPKTKVIPYVRYL]

From DBAASP
